# In ChEMBL document CHEMBL5154661, “Novel 2-phenyl-3-(Pyridin-2-yl) thiazolidin-4-one derivatives as potent inhibitors for proliferation of osteosarcoma cells in vitro and in vivo” (Eur J Med Chem, 2022):
# Assays:
# [1] = system: HOS-TE85; experiment: Antiproliferative activity against human MNNG/HOS cells assessed as cell growth inhibition measured after 72 hrs by CCK-8 assay; assay type: functional, cell-based; conditions: HOS-TE85, 72 h
# [2] = system: MG-63; experiment: Antiproliferative activity against human MG-63 cells assessed as cell growth inhibition at 1 uM measured after 72 hrs by CCK-8 assay relative to control; assay type: functional
# [3] = system: 143B; experiment: Antiproliferative activity against human 143B cells assessed as cell growth inhibition at 1 uM measured after 72 hrs by CCK-8 assay relative to control; assay type: functional
# [4] = system: SJSA-1; experiment: Antiproliferative activity against human SJSA-1 assessed as cell growth inhibition at 1 uM measured after 72 hrs by CCK-8 assay relative to control; assay type: functional
# [5] = system: HOS-TE85; experiment: Antiproliferative activity against human MNNG/HOS cells assessed as cell growth inhibition at 1 uM measured after 72 hrs by CCK-8 assay relative to control; assay type: functional
# [6] = system: HOS; experiment: Antiproliferative activity against human HOS cells assessed as cell growth inhibition at 1 uM measured after 72 hrs by CCK-8 assay relative to control; assay type: functional
# [7] = system: U2OS; experiment: Antiproliferative activity against human U2OS cells assessed as cell growth inhibition at 1 uM measured after 72 hrs by CCK-8 assay relative to control; assay type: functional
# [8] = Kinetic solubility of compound at pH 7.4 by turbidimetry method; assay type: physicochemical; conditions: buffer, read-out: Kinetic_solubility
# [9] = Microsomal stability in mouse liver microsomes assessed as intrinsic clearance at 0.1 uM incubated for 10 mins in presence of NADPH by LC-MS/MS analysis; assay type: ADME, Microsome
# [10] = Microsomal stability in rat liver microsomes assessed as intrinsic clearance at 0.1 uM incubated for 10 mins in presence of NADPH by LC-MS/MS analysis; assay type: ADME, Microsome
# [11] = Kinetic solubility of compound at pH 6.8 by turbidimetry method; assay type: physicochemical; conditions: buffer, read-out: Kinetic_solubility
# [12] = Microsomal stability in human liver microsomes assessed as intrinsic clearance at 0.1 uM incubated for 10 mins in presence of NADPH by LC-MS/MS analysis; assay type: ADME, Microsome
compound,measurement,setting,value
COc1ccccc1N1C(=O)CSC1c1cc(F)cc(C(=O)O)c1 (stereo not given),IC50,[1],> 1 µM
same,inhibition at 1 µM,[2],0%
same,inhibition at 1 µM,[3],0%
same,inhibition at 1 µM,[4],0%
same,inhibition at 1 µM,[5],0%
same,inhibition at 1 µM,[6],8%
same,inhibition at 1 µM,[7],15%
O=C(NCCCCc1ccccc1)c1cccc(C2SCC(=O)N2c2ccccc2)c1 (stereo not given),IC50,[1],0.0159 µM
same,inhibition at 1 µM,[2],89%
same,inhibition at 1 µM,[3],60%
same,inhibition at 1 µM,[4],73%
same,inhibition at 1 µM,[5],96%
same,inhibition at 1 µM,[6],55%
same,inhibition at 1 µM,[7],68%
C#Cc1cc(C(=O)NCCCCc2ccccc2)cc(C2SCC(=O)N2c2ccccc2OC)c1 (stereo not given),IC50,[1],0.0408 µM
same,solubility kinetic,[8],10 µM
same,intrinsic clearance (CLint),[9],2490 mL/min/g
same,intrinsic clearance (CLint),[10],2204 mL/min/g
same,solubility kinetic,[11],10 µM
same,intrinsic clearance (CLint),[12],1727 mL/min/g
C#Cc1cccc(N2C(=O)CSC2c2cccc(C(=O)NCCCCc3ccccc3)c2)c1 (stereo not given),IC50,[1],0.149 µM
same,solubility kinetic,[8],10 µM
same,intrinsic clearance (CLint),[9],1903 mL/min/g
same,intrinsic clearance (CLint),[10],1818 mL/min/g
same,solubility kinetic,[11],10 µM
same,intrinsic clearance (CLint),[12],751 mL/min/g
COc1ccc(N2C(=O)CSC2c2cccc(C(=O)NCCCCc3ccccc3)c2)c(OC)c1 (stereo not given),IC50,[1],0.0904 µM
same,inhibition at 1 µM,[2],56%
same,inhibition at 1 µM,[3],53%
same,inhibition at 1 µM,[4],85%
same,inhibition at 1 µM,[5],58%
same,inhibition at 1 µM,[6],82%
same,inhibition at 1 µM,[7],37%
O=C(NCCCCc1ccccc1)c1cc(F)cc(C2SCC(=O)N2c2ccccn2)c1 (stereo not given),IC50,[1],0.0142 µM
CC1SC(c2cccc(C(=O)NCCCCc3ccc(Cl)cc3)c2)N(c2ccc(C3CC3)cc2)C1=O (stereo not given),IC50,[1],> 1 µM
Cc1ccnc(N2C(=O)CS[C@H]2c2cccc(C(=O)NCCCCn3cccn3)c2)c1,IC50,[1],> 10 µM
O=C(NCCCCc1ccccc1)c1cccc(C2SCC(=O)N2c2ccc(N3CCOCC3)cc2)c1 (stereo not given),IC50,[1],> 1 µM
COc1ccc(F)cc1N1C(=O)CSC1c1cccc(C(=O)NCCCCn2cccn2)c1 (stereo not given),IC50,[1],0.0973 µM
same,solubility kinetic,[8],50 µM
same,intrinsic clearance (CLint),[9],1312 mL/min/g
same,intrinsic clearance (CLint),[10],1472 mL/min/g
same,solubility kinetic,[11],50 µM
same,intrinsic clearance (CLint),[12],421 mL/min/g
CCN(CC)c1ccc(N2C(=O)CSC2c2cccc(C(=O)NCCCCc3ccccc3)c2)cc1 (stereo not given),IC50,[1],> 1 µM
COc1cccc(OC)c1N1C(=O)CSC1c1cccc(C(=O)NCCCCc2ccccc2)c1 (stereo not given),IC50,[1],> 1 µM
same,inhibition at 1 µM,[2],80%
same,inhibition at 1 µM,[3],31%
same,inhibition at 1 µM,[4],72%
same,inhibition at 1 µM,[5],95%
same,inhibition at 1 µM,[6],80%
same,inhibition at 1 µM,[7],41%
CCC1(c2ccc(N3C(=O)CSC3c3cccc(C(=O)NCCCCn4cccn4)c3)cc2)CCC(=O)NC1=O (stereo not given),IC50,[1],> 1 µM
COc1ccccc1N1C(=O)CSC1c1cccc(C(=O)NCCCCc2cccs2)c1 (stereo not given),IC50,[1],0.046 µM
O=C(NCCCCn1cccn1)c1cccc(C2SCC(=O)N2c2cc(Cl)ccn2)c1 (stereo not given),IC50,[1],0.0364 µM
COc1ccccc1N1C(=O)CSC1c1cccc(C(=O)NCCCCn2cccn2)c1 (stereo not given),IC50,[1],0.0917 µM
CCOC(=O)c1sc(N2C(=O)CSC2c2cccc(C(=O)NCCCCn3cccn3)c2)nc1C (stereo not given),IC50,[1],0.429 µM
O=C(NCCCCn1cccn1)c1cccc(C2SCC(=O)N2c2cccnc2)c1 (stereo not given),IC50,[1],> 1 µM
COc1ccccc1N1C(=O)CSC1c1cccc(C(=O)NCCCCN2CCN(C(=O)OC(C)(C)C)CC2)c1 (stereo not given),IC50,[1],> 1 µM
O=C(NCCCCc1ccccc1)c1cccc(C2SCC(=O)N2c2ccc(-c3ccccc3)cc2)c1 (stereo not given),IC50,[1],> 1 µM
CCOc1ccccc1N1C(=O)C(C)SC1c1cccc(C(=O)NCCCCc2ccccc2)c1 (stereo not given),IC50,[1],0.0716 µM
same,inhibition at 1 µM,[2],92%
same,inhibition at 1 µM,[3],53%
same,inhibition at 1 µM,[4],85%
same,inhibition at 1 µM,[5],94%
same,inhibition at 1 µM,[6],82%
same,inhibition at 1 µM,[7],37%
O=C(NCCCCc1ccccc1)c1cccc(C2SCC(=O)N2c2cccc(-c3c[nH]nn3)c2)c1 (stereo not given),IC50,[1],0.11 µM
same,solubility kinetic,[8],20 µM
same,intrinsic clearance (CLint),[9],951 mL/min/g
same,intrinsic clearance (CLint),[10],742 mL/min/g
same,solubility kinetic,[11],20 µM
same,intrinsic clearance (CLint),[12],261 mL/min/g
O=C(NCCCCn1cccn1)c1cccc(C2SCC(=O)N2c2cc(F)ccn2)c1 (stereo not given),IC50,[1],0.0332 µM
same,solubility kinetic,[8],50 µM
same,intrinsic clearance (CLint),[9],397 mL/min/g
same,intrinsic clearance (CLint),[10],1198 mL/min/g
same,solubility kinetic,[11],50 µM
same,intrinsic clearance (CLint),[12],116.4 mL/min/g
CC1SC(c2cccc(C(=O)NCCCCc3ccc(Cl)cc3)c2)N(c2cccc(C3CC3)c2)C1=O (stereo not given),IC50,[1],0.932 µM
CCN1C(=O)CSC1c1cccc(C(=O)NCCCCc2ccccc2)c1 (stereo not given),IC50,[1],> 1 µM
same,inhibition at 1 µM,[2],0%
same,inhibition at 1 µM,[3],40%
same,inhibition at 1 µM,[4],3%
same,inhibition at 1 µM,[5],0%
same,inhibition at 1 µM,[6],6%
same,inhibition at 1 µM,[7],13%
COc1ccccc1N1C(=O)CSC1c1cccc(C(=O)NCCCCn2ccc3ccccc32)c1 (stereo not given),IC50,[1],0.286 µM
O=C(NCCc1ccccc1)c1cccc(C2SCC(=O)N2c2ccc(C3CC3)cc2)c1 (stereo not given),IC50,[1],> 1 µM
O=C(NCCCCn1cccn1)c1cccc(C2SCC(=O)N2c2cc(Br)ccn2)c1 (stereo not given),IC50,[1],0.105 µM
O=C(NCCCCn1cccn1)c1cccc(C2SCC(=O)N2c2ccccn2)c1 (stereo not given),IC50,[1],0.0603 µM
same,solubility kinetic,[8],50 µM
same,intrinsic clearance (CLint),[9],304 mL/min/g
same,intrinsic clearance (CLint),[10],506 mL/min/g
same,solubility kinetic,[11],50 µM
same,intrinsic clearance (CLint),[12],82.1 mL/min/g
CC(C)(C)c1conc1N1C(=O)CSC1c1cccc(C(=O)NCCCCc2ccccc2)c1 (stereo not given),IC50,[1],> 1 µM
COc1ccccc1N1C(=O)CSC1c1cccc(C(=O)NCCCCn2cncn2)c1 (stereo not given),IC50,[1],> 1 µM
O=C(NCCCCc1ccccc1)c1cccc(C2SCC(=O)N2c2cccc(C3CC3)c2)c1 (stereo not given),IC50,[1],0.299 µM
same,solubility kinetic,[8],10 µM
same,intrinsic clearance (CLint),[9],2943 mL/min/g
same,intrinsic clearance (CLint),[10],3543 mL/min/g
same,solubility kinetic,[11],10 µM
same,intrinsic clearance (CLint),[12],2069 mL/min/g
COc1ccccc1N1C(=O)CSC1C(=O)NCCCCc1ccccc1 (stereo not given),IC50,[1],> 1 µM
same,inhibition at 1 µM,[2],60%
same,inhibition at 1 µM,[3],4%
same,inhibition at 1 µM,[4],14%
same,inhibition at 1 µM,[5],0%
same,inhibition at 1 µM,[6],0%
same,inhibition at 1 µM,[7],6%
COc1c(F)cccc1N1C(=O)CSC1c1cccc(C(=O)NCCCCc2ccccc2)c1 (stereo not given),IC50,[1],0.0262 µM
same,inhibition at 1 µM,[2],0%
same,inhibition at 1 µM,[3],5%
same,inhibition at 1 µM,[4],1%
same,inhibition at 1 µM,[5],12%
same,inhibition at 1 µM,[6],9%
same,inhibition at 1 µM,[7],12%
COc1cc(F)ccc1N1C(=O)CSC1c1cccc(C(=O)NCCCCc2ccccc2)c1 (stereo not given),IC50,[1],0.0711 µM
same,inhibition at 1 µM,[2],92%
same,inhibition at 1 µM,[3],63%
same,inhibition at 1 µM,[4],77%
same,inhibition at 1 µM,[5],94%
same,inhibition at 1 µM,[6],81%
same,inhibition at 1 µM,[7],34%
COc1ccccc1N1C(=O)CSC1c1cccc(C(=O)NCCCCN2C(=O)C=CC2=O)c1 (stereo not given),IC50,[1],> 1 µM
O=C(NCCCc1ccccc1)c1cccc(C2SCC(=O)N2c2ccc(C3CC3)cc2)c1 (stereo not given),IC50,[1],> 1 µM
COc1ccccc1N1C(=O)CSC1c1cc(F)cc(C(=O)NCCCCc2ccccc2)c1 (stereo not given),IC50,[1],0.0409 µM
same,solubility kinetic,[8],10 µM
same,intrinsic clearance (CLint),[9],1434 mL/min/g
same,intrinsic clearance (CLint),[10],3259 mL/min/g
same,solubility kinetic,[11],10 µM
same,intrinsic clearance (CLint),[12],2076 mL/min/g
CC1SC(c2cccc(C(=O)NCCCCc3ccccc3)c2)N(c2ccc(C3CC3)cc2)C1=O (stereo not given),IC50,[1],0.191 µM
same,solubility kinetic,[8],2 µM
same,intrinsic clearance (CLint),[9],3212 mL/min/g
same,intrinsic clearance (CLint),[10],3129 mL/min/g
same,solubility kinetic,[11],10 µM
same,intrinsic clearance (CLint),[12],2013 mL/min/g
O=C(NCCCCn1cccn1)c1cccc(C2SCC(=O)N2c2ccncc2)c1 (stereo not given),IC50,[1],> 1 µM
COc1ccccc1N1C(=O)CSC1c1cc(C(=O)NCCCCc2ccccc2)cc(C2CC2)c1 (stereo not given),IC50,[1],0.0235 µM
O=C(NCCCCc1ccccc1)c1cccc(C2OCC(=O)N2c2cccc(F)c2)c1 (stereo not given),IC50,[1],0.32 µM
same,inhibition at 1 µM,[2],66%
same,inhibition at 1 µM,[3],0%
same,inhibition at 1 µM,[4],32%
same,inhibition at 1 µM,[5],87%
same,inhibition at 1 µM,[6],29%
same,inhibition at 1 µM,[7],25%
O=C(NCCCCc1ccccc1)c1cccc(C2SCC(=O)N2c2nccs2)c1 (stereo not given),IC50,[1],> 1 µM
COc1ccccc1N1C(=O)CSC1c1cc(C)cc(C(=O)NCCCCc2ccccc2)c1 (stereo not given),IC50,[1],0.0162 µM
O=C(NCCCCc1ccccc1)c1cccc(C2SCC(=O)N2c2ccccn2)c1 (stereo not given),IC50,[1],0.0197 µM
same,solubility kinetic,[8],20 µM
same,intrinsic clearance (CLint),[9],644 mL/min/g
same,intrinsic clearance (CLint),[10],1482 mL/min/g
same,solubility kinetic,[11],20 µM
same,intrinsic clearance (CLint),[12],412 mL/min/g
O=C(NCCCCc1ccccc1)c1cccc(C2SCC(=O)N2c2cnccn2)c1 (stereo not given),IC50,[1],> 1 µM
O=C(NCCCCc1ccccc1)c1cccc(C2SCC(=O)N2c2ccc(C3CC3)cc2)c1 (stereo not given),IC50,[1],0.217 µM
same,solubility kinetic,[8],2 µM
same,intrinsic clearance (CLint),[9],2962 mL/min/g
same,intrinsic clearance (CLint),[10],2275 mL/min/g
same,solubility kinetic,[11],2 µM
same,intrinsic clearance (CLint),[12],811 mL/min/g
COc1ccccc1N1C(=O)CSC1c1cccc(C(=O)NCCCCc2ccc(Cl)cc2)c1 (stereo not given),IC50,[1],0.0786 µM
CC1SC(c2cccc(C(=O)NCCCCc3ccccc3)c2)N(c2cccc(C3CC3)c2)C1=O (stereo not given),IC50,[1],0.295 µM
O=C(NCCCCn1cccn1)c1cccc(C2SCC(=O)N2c2cccc(C3CC3)c2)c1 (stereo not given),IC50,[1],0.298 µM
